The source of these data is PubChem BioAssay (NCI).

The structures appear in SMILES notation.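 Values below derive from 48-hour exposures of cells grown in 96-well plates, with endpoints linearly interpolated between the two concentrations bracketing the appropriate inhibition level. Definition used: TGI = concentration required for complete inhibition of growth.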 A value given as a limit tells only on which side of the number the result lay.

Some test systems named below: 786-0 renal; DU-145 prostate; EKVX NSCLC; HCT-116 colon; HOP-62 NSCLC; KM12 colon; MALME-3M melanoma; MCF7 breast; MOLT-4 leukemia; OVCAR-4 ovarian; PC-3 prostate; SK-OV-3 ovarian; SN12C renal; TK-10 renal; RXF 393 renal; CCRF-CEM leukemia.
What all share (assay): NCI-60 cell line screen, 48 h

Consider `Brc1ccc2c3c1[C@H]1O[C@H]1c1cccc(c1-3)[C@@H]1O[C@H]21`, for which the TGI with 786-0 renal is 34.6 µM; with DU-145 prostate it was 25.6 µM; in the assay on EKVX NSCLC it was 36.5 µM; with HCT-116 colon, 37.8 µM; with HOP-62 NSCLC it was 30.3 µM; with KM12 colon, 28.8 µM. Further, the TGI with MALME-3M melanoma was 33 µM; with MCF7 breast it was 73.1 µM; with MOLT-4 leukemia, above 100 µM; in the assay on OVCAR-4 ovarian, 28.8 µM; with PC-3 prostate, 33.4 µM; with SK-OV-3 ovarian it was 35.1 µM. Further, the results for the TGI in the assay with SN12C renal and in the assay on TK-10 renal were 33.3 µM and 37.4 µM, respectively.

As for `O=c1[nH]c2ccccc2c(O)c1/C=N/C(=S)NCc1ccccc1`, the TGI with 786-0 renal, in the assay with DU-145 prostate, in the assay on EKVX NSCLC, with HCT-116 colon, in the assay on HOP-62 NSCLC and in the assay with KM12 colon was above 100 µM in each case. For the same compound, the TGI with MCF7 breast, with MOLT-4 leukemia, in the assay on PC-3 prostate, in the assay with SK-OV-3 ovarian, with SN12C renal and in the assay on TK-10 renal was above 100 µM in each case.

On to `COc1cc(C2c3cc4c(cc3OC(Nc3ccccc3)C2C)OCO4)cc(OC)c1O` (stereo not drawn), for which the TGI with 786-0 renal was found to be 21.7 µM; in the assay on DU-145 prostate, 19.6 µM; in the assay with HCT-116 colon, 16 µM; in the assay with KM12 colon it was 38.7 µM; in the assay on MALME-3M melanoma it was 21.6 µM; in the assay on MCF7 breast, 24.6 µM. For the same compound, the TGI in the assay on MOLT-4 leukemia stood at 11.2 µM; with OVCAR-4 ovarian it was 48.2 µM; in the assay on PC-3 prostate, 13.4 µM; with RXF 393 renal it was 19.7 µM; with SN12C renal it was 21.2 µM; with TK-10 renal, 20.2 µM.

`CCOC(=O)c1cc(I)c(-c2cc(C)no2)n1C`: the TGI with 786-0 renal is above 100 µM; in the assay with CCRF-CEM leukemia it was above 100 µM; in the assay with DU-145 prostate it was above 100 µM; with EKVX NSCLC, above 100 µM; in the assay on HCT-116 colon, above 100 µM; with KM12 colon, 49.3 µM. The TGI is above 100 µM in the assay on MALME-3M melanoma; 71.6 µM with MOLT-4 leukemia; 75 µM in the assay on OVCAR-4 ovarian; above 100 µM in the assay on PC-3 prostate; 42.8 µM in the assay with RXF 393 renal; above 100 µM in the assay on SK-OV-3 ovarian. The TGI with SN12C renal was 69.4 µM; with TK-10 renal, above 100 µM.

Turning to `CC1(C)O[C@@H](CCl)C[C@H](C#N)O1`, the TGI in the assay on 786-0 renal, with CCRF-CEM leukemia, in the assay on EKVX NSCLC, in the assay on HCT-116 colon, in the assay with HOP-62 NSCLC and in the assay with KM12 colon was above 100 µM each time. The TGI in the assay with MALME-3M melanoma, in the assay on MOLT-4 leukemia, in the assay with OVCAR-4 ovarian, in the assay on RXF 393 renal, in the assay on SK-OV-3 ovarian and in the assay on SN12C renal was above 100 µM throughout. In the assay on TK-10 renal, this compound gave a TGI above 100 µM.

For `COc1ccc2c(c1)C/C(=C\c1cccc3ccccc13)C2=O`, the TGI in the assay on 786-0 renal is 77.7 µM; in the assay with CCRF-CEM leukemia, above 100 µM; with EKVX NSCLC, above 100 µM; in the assay on KM12 colon, above 100 µM; in the assay with MCF7 breast it was above 100 µM; with MOLT-4 leukemia, above 100 µM. The TGI with OVCAR-4 ovarian is above 100 µM; in the assay on PC-3 prostate it was above 100 µM; in the assay with RXF 393 renal it was 22.5 µM; in the assay with SK-OV-3 ovarian, above 100 µM; in the assay on SN12C renal, above 100 µM; in the assay with TK-10 renal, above 100 µM.

For the compound `CCCC(C)n1c(C)nc2c1C(=O)c1ccccc1C2=O` (stereo not drawn), the TGI in the assay on 786-0 renal is above 100 µM; in the assay on CCRF-CEM leukemia, above 100 µM; with EKVX NSCLC it was above 100 µM; with HCT-116 colon, 19.5 µM; with HOP-62 NSCLC, above 100 µM; with KM12 colon, above 100 µM. Further, the TGI in the assay on MALME-3M melanoma is 67 µM; in the assay on MOLT-4 leukemia, above 100 µM; with OVCAR-4 ovarian, above 100 µM; in the assay on RXF 393 renal, 69.2 µM; in the assay on SK-OV-3 ovarian, above 100 µM; in the assay on SN12C renal it was above 100 µM. The TGI in the assay with TK-10 renal is above 100 µM.

Take `COc1cc(CNc2cnc3cc(N)ccc3n2)cc(OC)c1OC`: the TGI is above 100 µM with 786-0 renal; above 100 µM in the assay on CCRF-CEM leukemia; above 100 µM with EKVX NSCLC; 50.2 µM in the assay on HCT-116 colon; above 100 µM in the assay with HOP-62 NSCLC; above 100 µM in the assay on KM12 colon. For the same compound, the TGI is above 100 µM in the assay on MALME-3M melanoma; above 100 µM with MOLT-4 leukemia; above 100 µM in the assay with OVCAR-4 ovarian; 53 µM with SK-OV-3 ovarian; above 100 µM in the assay on SN12C renal; above 100 µM with TK-10 renal.

Turning to `NNc1nncc2[nH]cnc12`, the TGI with 786-0 renal, in the assay on CCRF-CEM leukemia, in the assay with DU-145 prostate, with EKVX NSCLC, in the assay on HCT-116 colon and in the assay on HOP-62 NSCLC was above 100 µM in each case. Moreover, the TGI with KM12 colon, in the assay on MCF7 breast, with MOLT-4 leukemia, with PC-3 prostate, in the assay on RXF 393 renal and with SN12C renal was above 100 µM each time. This compound displayed a TGI in the assay with TK-10 renal above 100 µM.

In the case of `COP(=O)(OC)C(NC(=O)C(F)(F)F)(c1ccccc1)C(F)(F)F` (stereo not drawn), the TGI in the assay with 786-0 renal, in the assay on CCRF-CEM leukemia, in the assay on EKVX NSCLC, in the assay on HCT-116 colon, in the assay on HOP-62 NSCLC and with KM12 colon was above 100 µM each time. Also, the TGI in the assay with MALME-3M melanoma, in the assay with MOLT-4 leukemia, in the assay with OVCAR-4 ovarian, with RXF 393 renal, in the assay on SK-OV-3 ovarian and with SN12C renal was above 100 µM throughout. In addition, the TGI with TK-10 renal was above 100 µM.

As for `CSCCCS/C1=C/CCCCCCCCCC1`, the TGI in the assay with 786-0 renal, in the assay with DU-145 prostate, in the assay on EKVX NSCLC, in the assay with HCT-116 colon, with HOP-62 NSCLC and in the assay with KM12 colon was above 100 µM throughout. Moreover, the TGI with MALME-3M melanoma, with MCF7 breast, in the assay with MOLT-4 leukemia, in the assay on OVCAR-4 ovarian, in the assay with PC-3 prostate and with RXF 393 renal was above 100 µM throughout. The TGI in the assay on SK-OV-3 ovarian, in the assay with SN12C renal and in the assay with TK-10 renal was above 100 µM in each case.
